In the oligonucleotide strings, read from the 5' end, every base follows the letter of its sugar. An asterisk marks phosphorothioate; unmarked linkages are phosphodiester. Other units and linkages are bracketed, terminal groups are in braces. A string of capitals states the bases alone. e = 2'-O-(2-methoxyethyl) (MOE); [5mC] = 5-methylcytosine; d = 2'-deoxy (DNA)
Each substance was assayed on human growth hormone receptor mRNA (assay: Inhibition of human growth hormone receptor mRNA levels in MCF7 cells, quantitative real-time PCR). Settings: averages from three experiments.
Type: cell-based
Design: concentration or dose not given beside the values
Protocol: The human breast carcinoma cell line MCF-7 was obtained from the American Type Culture Collection (Manassas, Va.). MCF-7 cells were routinely cultured in DMEM low glucose (Gibco/Life Technologies, Gaithersburg, Md.) supplemented with 10% fetal calf serum (Gibco/Life Technologies, Gaithersburg, Md.). Cells were routinely passaged by trypsinization and dilution when they reached 90% confluence. Cells were seeded into 96-well plates (Falcon-Primaria #3872) at a density of 7000 cells/well for use in RT-PCR analysis.
(§1) When cells reached 65-75% confluency, they were treated with oligonucleotide. For cells grown in 96-well plates, wells were washed once with 100 μL OPTI-MEM™-1 reduced-serum medium (Invitrogen Corporation, Carlsbad, Calif.) and then treated with 130 μL of OPTI-MEM™-1 containing 3.75 μg/mL LIPOFECTIN™ (Invitrogen Corporation, Carlsbad, Calif.) and the desired concentration of oligonucleotide. Cells are treated and data are obtained in triplicate. After 4-7 hours of treatment at 37° C., the medium was replaced with fresh medium. Cells were harvested 16-24 hours after oligonucleotide treatment.
(§2) Total RNA was isolated using an RNEASY 96™ kit and buffers purchased from Qiagen Inc. (Valencia, Calif.) following the manufacturer's recommended procedures. Briefly, for cells grown on 96-well plates, growth medium was removed from the cells and each well was washed with 200 μL cold PBS. 150 μL Buffer RLT was added to each well and the plate vigorously agitated for 20 seconds. 150 μL of 70% ethanol was then added to each well and the contents mixed by pipetting three times up and down. The samples were then transferred to the RNEASY 96™ well plate attached to a QIAVAC™ manifold fitted with a waste collection tray and attached to a vacuum source. Vacuum was applied for 1 minute. 500 μL of Buffer RW1 was added to each well of the RNEASY 96™ plate and incubated for 15 minutes and the vacuum was again applied for 1 minute. An additional 500 μL of Buffer RW1 was added to each well of the RNEASY 96™ plate and the vacuum was applied for 2 minutes. 1 mL of Buffer RPE was then added to each well of the RNEASY 96™ plate and the vacuum applied for a period of 90 seconds. The Buffer RPE wash was then repeated and the vacuum was applied for an additional 3 minutes. The plate was then removed from the QIAVAC™ manifold and blotted dry on paper towels. The plate was then re-attached to the QIAVAC™ manifold fitted with a collection tube rack containing 1.2 mL collection tubes. RNA was then eluted by pipetting 140 μL of RNAse free water into each well, incubating 1 minute, and then applying the vacuum for 3 minutes.
(§3) Quantitation of growth hormone receptor mRNA levels was accomplished by real-time quantitative PCR using the ABI PRISM™ 7600, 7700, or 7900 Sequence Detection System (PE-Applied Biosystems, Foster City, Calif.) according to manufacturer's instructions. This is a closed-tube, non-gel-based, fluorescence detection system which allows high-throughput quantitation of polymerase chain reaction (PCR) products in real-time. As opposed to standard PCR in which amplification products are quantitated after the PCR is completed, products in real-time quantitative PCR are quantitated as they accumulate. This is accomplished by including in the PCR reaction an oligonucleotide probe that anneals specifically between the forward and reverse PCR primers, and contains two fluorescent dyes. A reporter dye (e.g., FAM or JOE, obtained from either PE-Applied Biosystems, Foster City, Calif., Operon Technologies Inc., Alameda, Calif. or Integrated DNA Technologies Inc., Coralville, Iowa) is attached to the 5′ end of the probe and a quencher dye (e.g., TAMRA, obtained from either PE-Applied Biosystems, Foster City, Calif., Operon Technologies Inc., Alameda, Calif. or Integrated DNA Technologies Inc., Coralville, Iowa) is attached to the 3′ end of the probe. When the probe and dyes are intact, reporter dye emission is quenched by the proximity of the 3′ quencher dye. […]

Going from “272355 (antisense eT*eT*eG*eA*eG*dT*dG*dT*dT*d[5mC]*d[5mC]*dT*dA*dA*dA*eA*eT*eG*eA*eA) [compound 272355]” to “272356 (antisense eA*eT*eG*eG*eA*dG*dG*d[5mC]*dT*dG*dG*dA*dG*dG*dT*eT*e[5mC]*eA*eA*eA) [compound 272356]”, the “% INHIB” value rises from 24% to 63%.

First: 272357 (antisense eT*eA*eG*eG*eG*dT*d[5mC]*d[5mC]*dA*dT*d[5mC]*dT*dT*dT*d[5mC]*eA*eA*eG*eA*e[5mC]) [compound 272357]
Second: 272358 (antisense eT*e[5mC]*eT*e[5mC]*e[5mC]*dA*dG*dA*dT*dA*dG*dA*dA*dT*d[5mC]*eT*eA*eA*eA*e[5mC]) [compound 272358]
The “% INHIB” value of the first is higher: 62% for the first, 53% for the second.

First: 272359 (antisense eT*e[5mC]*e[5mC]*eA*eA*dA*dT*dA*dT*dT*d[5mC]*dT*dG*dG*dT*eA*e[5mC]*eT*eT*eT) [compound 272359]
Second: 272360 (antisense eT*eA*eT*eT*eA*dG*dT*dT*dA*d[5mC]*d[5mC]*dT*dT*dG*dA*eG*eG*eA*eG*eA) [compound 272360]
The “% INHIB” value of the first is higher: 72% for the first, 0% for the second.

In the case of “272361 (antisense eA*eT*eT*eT*eT*d[5mC]*d[5mC]*dT*dT*d[5mC]*d[5mC]*dT*dA*dG*dA*eA*eA*eA*eT*eA) [compound 272361]”, the “% INHIB” value is reported as 10%.

These substances were tested on mouse growth hormone receptor mRNA (assay: Inhibition of mouse growth hormone receptor mRNA levels in b.END cells, quantitative real-time PCR). Settings: mouse growth hormone receptor mRNA, b.END cells, averages from three experiments.
Type: cell-based
Design: % INHIB: concentration or dose not given beside the values
Protocol: The mouse brain endothelial cell line b.END was obtained from Dr. Werner Risau at the Max Plank Instititute (Bad Nauheim, Germany). b.END cells were routinely cultured in DMEM, high glucose (Gibco/Life Technologies, Gaithersburg, Md.) supplemented with 10% fetal calf serum (Gibco/Life Technologies, Gaithersburg, Md.). Cells were routinely passaged by trypsinization and dilution when they reached 90% confluence. Cells were seeded into 96-well plates (Falcon-Primaria #3872) at a density of 3000 cells/well for use in RT-PCR analysis.
as §1, §2
as §3, with “probe.” for “probe. When the probe and dyes are intact, reporter dye emission is quenched by the proximity of the 3′ quencher dye.”

First: 227443 (antisense eT*eG*e[5mC]*eT*eT*dG*dG*d[5mC]*dA*dG*d[5mC]*dT*d[5mC]*dG*dT*eG*eG*eG*eT*eT) [compound 227443]
Second: 227444 (antisense eA*eT*eG*eG*e[5mC]*dT*dG*d[5mC]*dG*d[5mC]*d[5mC]*dT*dG*d[5mC]*dT*eT*eG*eG*e[5mC]*eA) [compound 227444]
The “% INHIB” value of the first is lower: 0% for the first, 53% for the second.

First: 227445 (antisense eT*eA*e[5mC]*e[5mC]*eT*dG*dA*dG*dA*d[5mC]*d[5mC]*dT*d[5mC]*dG*dG*eA*eG*eT*eT*eT) [compound 227445]
Second: 227446 (antisense eA*e[5mC]*eA*eA*eA*dG*dA*dT*d[5mC]*d[5mC]*dA*dT*dA*d[5mC]*d[5mC]*eT*eG*eA*eG*eA) [compound 227446]
The “% INHIB” value of the first is lower: 69% for the first, 87% for the second.

First: 227447 (antisense eG*e[5mC]*eT*eG*eG*dT*dG*dT*dA*dG*d[5mC]*d[5mC]*dT*d[5mC]*dA*e[5mC]*eT*eT*e[5mC]*e[5mC]) [compound 227447]
Second: 227448 (antisense eT*eT*eT*eG*e[5mC]*d[5mC]*dA*dA*dG*dA*dG*dT*dA*dG*d[5mC]*eT*eG*eG*eT*eG) [compound 227448]
The “% INHIB” value of the first is higher: 77% for the first, 60% for the second.

Compared with “227449 (antisense eA*e[5mC]*eG*eA*e[5mC]*dA*d[5mC]*dT*dT*dG*dG*dT*dG*dA*dA*eT*e[5mC]*eG*eA*eG) [compound 227449]”, “227450 (antisense eT*eG*eG*e[5mC]*eT*dT*dT*d[5mC]*d[5mC]*d[5mC]*dT*dT*dT*dT*dA*eG*e[5mC]*eA*eT*eA) [compound 227450]” is higher in “% INHIB” value: 69% for the first, 71% for the second.

Compared with “227451 (antisense eA*eT*eG*eA*eG*d[5mC]*dA*dA*dT*dT*d[5mC]*dT*dT*dG*d[5mC]*eA*eG*e[5mC]*eT*eT) [compound 227451]”, “227454 (antisense eA*eG*eT*eT*eG*dA*dA*dG*dT*dA*dA*d[5mC]*dA*dG*d[5mC]*eT*eG*eT*eT*eT) [compound 227454]” is higher in “% INHIB” value: 49% for the first, 69% for the second.

First: 227455 (antisense eA*eG*eT*eA*eG*dG*dG*dT*dA*dT*d[5mC]*d[5mC]*dA*dA*dA*eT*eG*eG*eA*eG) [compound 227455]
Second: 227456 (antisense eG*eT*e[5mC]*e[5mC]*eA*dG*dT*dT*dG*dA*dG*dG*d[5mC]*d[5mC]*dA*eA*eT*eG*eG*eG) [compound 227456]
The “% INHIB” value of the first is lower: 43% for the first, 97% for the second.

Going from “227457 (antisense eG*eA*eA*eT*eT*dA*dT*d[5mC]*d[5mC]*dA*dT*d[5mC]*d[5mC]*d[5mC]*dT*eT*e[5mC]*eA*eG*eA) [compound 227457]” to “227458 (antisense eG*eT*eA*e[5mC]*eT*dG*dA*dA*dT*dT*dT*d[5mC]*dA*dT*dA*e[5mC]*eT*e[5mC]*e[5mC]*eA) [compound 227458]”, the “% INHIB” value rises from 67% to 75%.

First: 227459 (antisense e[5mC]*eT*eG*eA*eA*d[5mC]*dT*d[5mC]*dG*d[5mC]*dT*dG*dT*dA*d[5mC]*eT*eT*eT*eT*e[5mC]) [compound 227459]
Second: 227460 (antisense eA*eA*e[5mC]*eT*eG*dG*dA*dT*dA*dT*d[5mC]*dT*dT*d[5mC]*dT*eT*e[5mC]*eA*e[5mC]*eA) [compound 227460]
The “% INHIB” value of the first is higher: 60% for the first, 43% for the second.

First: 227461 (antisense eT*eG*e[5mC]*eT*eA*d[5mC]*dT*d[5mC]*d[5mC]*dA*dA*dA*dT*dA*dT*eT*e[5mC]*e[5mC]*eA*eA) [compound 227461]
Second: 227462 (antisense eG*e[5mC]*eT*eT*eT*dG*dA*dA*dA*dA*dT*dA*dT*dA*dA*e[5mC]*eT*eA*e[5mC]*eA) [compound 227462]
The “% INHIB” value of the first is higher: 75% for the first, 31% for the second.

Going from “227463 (antisense eA*eT*e[5mC]*eA*eG*d[5mC]*dA*dT*d[5mC]*dT*dT*dA*dA*dT*d[5mC]*e[5mC]*eT*eT*eT*eG) [compound 227463]” to “227465 (antisense eT*eG*eA*eG*eA*dA*dG*dA*dT*d[5mC]*dT*dG*dG*dA*dT*e[5mC]*eA*eA*eT*e[5mC]) [compound 227465]”, the “% INHIB” value rises from 39% to 51%.

First: 227466 (antisense eT*eT*eG*eT*eA*dG*dT*dT*dA*dT*d[5mC]*dA*dT*dG*dA*eA*eT*eG*e[5mC]*e[5mC]) [compound 227466]
Second: 227467 (antisense e[5mC]*eA*eT*e[5mC]*eA*dT*dT*dG*dT*dA*dG*dA*dA*dG*dT*e[5mC]*eG*eG*eG*eT) [compound 227467]
The “% INHIB” value of the first is higher: 50% for the first, 33% for the second.

“227470 (antisense e[5mC]*eT*e[5mC]*e[5mC]*eA*dA*dG*dG*dA*dT*dA*d[5mC]*d[5mC]*dA*dG*e[5mC]*eT*eG*eA*eT) [compound 227470]” was tested, and the “% INHIB” value was 82%.
